Molecular target: T1, AAK1 (Homo sapiens, UniProt Q2M2I8)
T1 construct: HA; expressed in transfected cells; host or cells: HEK293F
Assay: HEK281 cell-based assay (phospho-mu2 Western blot in transfected HEK293F cells)
Details: 3 hours incubation, read-out: CBA IC50
Procedure: HEK293F cells were cultured in media containing DMEM (Gibco, cat. #11965), 10% FBS (SAFC Biosciences, cat. #12103C), 1×GPS (glutamine, penicillin and streptomycin). On day one, cells were plated on a 10 cm dish so that they are ˜80% confluent at time of transfection. Roughly 12 million cells were in a 10 cm dish at time of transfection. On day two, each dish was transfected with 48 ug DNA and 144 ul Lipofectamine 2000 (Invitrogen, cat.#11668-019). The DNA was comprised of a mixture (per 10 cm dish) containing 3 ug AAK1/HA/pIRES (full length human, NCBI accession no. NP_055726.2), 45 μg Flag/AP2MI/pcDNA (full length human), and 1.5 ml OPTI-MEM. The Lipofectamine 2000 is made up of a mixture (per 10 cm dish) containing 144 μl Lipofectamine 2000 and 1.5 ml OPTI-MEM. Each mixture was transferred to individual 15 ml tubes and incubated at RT for 5 minutes, and then the two mixes were combined and incubated at RT for 20 minutes. Growth media was then aspirated from each 10 cm plate and replaced with 10 ml of DMEM+10% FBS (no GPS). Finally, 3 ml DNA/Lipofectamine mix was added to each 10 cm dish and mix gently followed by incubate of plate overnight at 37° C. and 5% CO2.
On day three, compounds were diluted in 100% DMSO at 1000× final concentration, followed by 3-fold serial dilutions for a total of 5 concentrations tested. Four compounds were tested per 10 cm dish. One ul of each compound dilution was then pipetted into a deep-well, 96-well plate, followed by addition of 500 μl DMEM+0.5% FBS into each well for a 2× final concentration of each compound. Cells were resuspended in a 10 cm dish by simple pipetting (HEK293 cells come off the plate that easy at this point) and then transferred to a 50 ml conical tube and pelleted by centrifugation at 1000 rpm for 5 min. Cell pellets were then resuspended in 2.75 ml DMEM+0.5% FBS per 10 cm dish and 100 μl of cell suspension transferred into each well of 96-well TC plate. Finally, 100 μl of 2× compound diluted in DMEM+0.5% FBS was then added into wells containing cell suspension for a 1× final concentration. Plates were then incubated at 37° C. and 5% CO2 for 3 hours followed by transferring of cell suspensions from each well into 12-tube PCR strips. The PCR strips were spun in a tip rack at 1000 rpm for 5 minutes to pellet cells and media was then removed by pipetting without disturbing the cell pellet.
To prepare for Western Blot analysis, cell pellets were resuspend in 40 ul 1×LDS-PAGE sample buffer (Invitrogen, cat.#NP0008)+2× Halt phophatase and protease inhibitor cocktail (Thermo Scientific, cat.#1861284), followed by sonicating each with microtip sonicator set at 5 for 8-10 seconds. Five ul of 10× NuPage Sample Reducing Agent (with 50 mM DTT) was to each sample followed by heat denaturing at 70 C for 10 min on PCR machine. A total of 10 μl per sample was loaded into each lane of a 4-20% Tris-Glycine Criterion 26-well gel (Biorad, cat.#345-0034) for the phospho-mu2 blot and 10 μl per lane in a 4-12% Bis-Tris (+MES buffer) NuPAGE 26-well gel (Invitrogen, cat.#WG1403BX10) for the mu2 blot. For controls, 2 ng of phospho-mu2 or 20 ng mu2/Flag proteins were loaded in the last well of each gel. After SDS-PAGE, samples on each gel were transferred to PVDF membrane using an iBlot and membranes were blocked for one hour in TBST+5% milk, followed by wash 3× for 5-10 min with TBST. Criterion gels were probed with rabbit anti-phospho-mu2 (1:5000; a rabbit polyclonal antibody produced by New England Peptide and affinity purified at Lexicon) in TBST+5% BSA, whereas, NuPAGE gels were probed with mouse anti-Flag (1:500; Sigma, cat.#F1804) in TBST+5% milk, and these primary antibodies were incubated overnight at 4° C. on a rocker.

T1 sequence (Q2M2I8 1-863 isoform Q2M2I8-2): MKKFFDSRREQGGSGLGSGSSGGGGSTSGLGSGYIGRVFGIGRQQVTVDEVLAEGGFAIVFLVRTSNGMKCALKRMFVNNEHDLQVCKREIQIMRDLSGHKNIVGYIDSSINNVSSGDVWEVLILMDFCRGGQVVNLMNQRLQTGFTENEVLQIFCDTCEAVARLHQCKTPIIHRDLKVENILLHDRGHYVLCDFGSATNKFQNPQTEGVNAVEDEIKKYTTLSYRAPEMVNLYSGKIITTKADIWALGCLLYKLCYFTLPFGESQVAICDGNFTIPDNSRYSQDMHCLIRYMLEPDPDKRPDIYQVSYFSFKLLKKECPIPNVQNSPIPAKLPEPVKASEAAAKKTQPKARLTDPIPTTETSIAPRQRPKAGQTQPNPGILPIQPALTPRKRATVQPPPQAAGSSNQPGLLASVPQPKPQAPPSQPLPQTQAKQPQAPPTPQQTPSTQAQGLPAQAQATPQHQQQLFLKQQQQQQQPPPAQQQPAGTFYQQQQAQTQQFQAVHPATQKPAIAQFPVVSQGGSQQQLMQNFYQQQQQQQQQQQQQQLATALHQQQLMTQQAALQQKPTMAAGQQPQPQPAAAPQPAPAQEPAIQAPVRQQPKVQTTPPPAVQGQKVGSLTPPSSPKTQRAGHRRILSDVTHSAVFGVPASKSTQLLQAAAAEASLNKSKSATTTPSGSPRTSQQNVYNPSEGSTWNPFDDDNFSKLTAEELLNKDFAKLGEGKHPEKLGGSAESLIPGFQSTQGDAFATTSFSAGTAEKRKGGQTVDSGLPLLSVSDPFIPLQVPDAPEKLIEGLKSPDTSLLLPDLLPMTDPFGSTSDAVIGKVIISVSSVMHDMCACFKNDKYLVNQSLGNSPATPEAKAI

Molecule `CCOC(=O)N1CCC[C@H]1CNc1ccc2ncc(Br)n2n1` [(S)-ethyl 2-(((3-bromoimidazo[1,2-b]pyridazin-6-yl)amino)methyl)pyrrolidine-1-carboxylate] has an IC50 of no more than 100 nM.

`CC(C)CC(=O)N1CCC[C@H]1CNc1ccc2ncc(Br)n2n1` [(S)-1-(2-(((3-bromoimidazo[1,2-b]pyridazin-6-yl)amino)methyl)pyrrolidin-1-yl)-3-methylbutan-1-one] gave an IC50 of no more than 100 nM.

`NCc1ccc(-c2cnc3ccc(NCC4CCCC4)nn23)cc1` [3-(4-(aminomethyl)phenyl)-N-(cyclopentylmethyl)imidazo[1,2-b]pyridazin-6-amine] gave an IC50 of no more than 1000 nM.

`FCCCNc1ccc2ncc(-c3ccc(C4CCCN4)cc3)n2n1` (stereo not drawn) [N-(3-fluoropropyl)-3-(4-(pyrrolidin-2-yl)phenyl)imidazo[1,2-b]pyridazin-6-amine] showed an IC50 of no more than 100 nM.

Work on `CC(C)CCNc1ccc2ncc(-c3ccc(CN)cc3)n2n1` [3-(4-(aminomethyl)phenyl)-N-isopentylimidazo[1,2-b]pyridazin-6-amine] yielded an IC50 of no more than 1000 nM.

Work on `CCCCNc1ccc2ncc(-c3ccc(CNCC4CCCO4)cc3)n2n1` (stereo not drawn) [N-butyl-3-(4-((((tetrahydrofuran-2-yl)methyl)amino)methyl)phenyl)imidazo[1,2-b]pyridazin-6-amine] yielded an IC50 of no more than 1000 nM.

In the case of `CC(C)(C)N1CCN(CCNc2ccc3ncc(-c4ccc(CN)cc4)n3n2)C1=O` [1-(2-((3-(4-(aminomethyl)phenyl)imidazo[1,2-b]pyridazin-6-yl)amino)ethyl)-3-(tert-butyl)imidazolidin-2-one], the IC50 is reported as no more than 100 nM.

Molecule `COc1cnccc1-c1cnc2ccc(NCCOCC(C)C)nn12` [N-(2-isobutoxyethyl)-3-(3-methoxypyridin-4-yl)imidazo[1,2-b]pyridazin-6-amine] has an IC50 of no more than 100 nM.

Work on `CCCCNc1ccc2ncc(-c3ccc4cnccc4c3)n2n1` [Butyl-(3-isoquinolin-6-yl-imidazo[1,2-b]pyridazin-6-yl)amine] yielded an IC50 of no more than 100 nM.

Molecule `CC(C)(C)OC(=O)N1CCCC[C@H]1CNc1ccc2ncc(-c3ccncc3)n2n1` [(S)-tert-butyl 2-(((3-(pyridin-4-yl)imidazo[1,2-b]pyridazin-6-yl)amino)methyl)piperidine-1-carboxylate] has an IC50 of no more than 100 nM.

For `CC(C)N(CCNc1ccc2ncc(-c3ccc(C(N)=O)cc3)n2n1)C(=O)OC(C)(C)C` [tert-butyl (2-((3-(4-carbamoylphenyl)imidazo[1,2-b]pyridazin-6-yl)amino)ethyl)(isopropyl)carbamate], the IC50 was no more than 10 nM.

In the case of `NCc1ccc(-c2cnc3ccc(NC[C@@H]4CCCO4)nn23)cc1` [(S)-3-(4-(aminomethyl)phenyl)-N-((tetrahydrofuran-2-yl)methyl)imidazo[1,2-b]pyridazin-6-amine], the IC50 is reported as no more than 100 nM.

For `COc1cc(F)c(F)cc1-c1cnc2ccc(NCCN(C(=O)OC(C)C)C(C)C)nn12` [isopropyl (2-((3-(4,5-difluoro-2-methoxyphenyl)imidazo[1,2-b]pyridazin-6-yl)amino)ethyl)(isopropyl)carbamate], the IC50 was no more than 100 nM.

`CCCCN(C)c1ccc2ncc(-c3ccc(C(C)=O)s3)n2n1` [1-(5-(6-(butyl(methyl)amino)imidazo[1,2-b]pyridazin-3-yl)thiophen-2-yl)ethanone] showed an IC50 of no more than 100 nM.

For `CCCNc1ccc2ncc(-c3ccc(C=O)s3)n2n1` [5-(6-(propylamino)imidazo[1,2-b]pyridazin-3-yl)thiophene-2-carbaldehyde], the IC50 was no more than 1000 nM.

In the case of `CC(C)(C)OC(=O)N1CC[C@@H](CNc2ccc3ncc(Br)n3n2)C1` [(S)-tert-butyl 3-(((3-bromoimidazo[1,2-b]pyridazin-6-yl)amino)methyl)pyrrolidine-1-carboxylate], the IC50 is reported as no more than 1000 nM.

For `COc1ccccc1-c1cnc2ccc(NC[C@@H]3CCCN3C(=O)OC(C)(C)C)nn12` [(S)-tert-butyl 2-(((3-(2-methoxyphenyl)imidazo[1,2-b]pyridazin-6-yl)amino)methyl)pyrrolidine-1-carboxylate], the IC50 was no more than 10 nM.

Molecule `CCCCNc1ccc2ncc(-c3ccc(C(N)=O)s3)n2n1` [5-(6-(butylamino)imidazo[1,2-b]pyridazin-3-yl)thiophene-2-carboxamide] has an IC50 of no more than 1000 nM.
